Laboratory results published in patent US20150105252A1, “SUBSTITUTED PYRAZOLES AS HERBICIDES” (E I DU PONT DE NEMOURS AND COMPANY, priority 2013, published 2015).

How the values were obtained:
[1] = system: barnyardgrass; assay: Test A preemergence; type: in vivo, Echinochloa crus-galli; conditions: preemergence
In short: (§1)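 After sowing in a sand–loam mix, pots received compound preemergence by directed soil spray, or postemergence once plants reached the one- to two-leaf stage (2–10 cm). Formulation contained surfactant in a non-phytotoxic solvent. Injury was scored visually after ~10 greenhouse days, 0–100 scale.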

[2] = system: foxtail, giant; assay: Test A preemergence; type: in vivo, Setaria faberii; conditions: preemergence
In short: as §1

[3] = system: morningglory; assay: Test A preemergence; type: in vivo, Ipomoea spp.; conditions: preemergence
In short: as §1

[4] = system: velvetleaf; assay: Test A preemergence; type: in vivo, Abutilon theophrasti; conditions: preemergence
In short: as §1

[5] = system: velvetleaf; assay: Test A postemergence; type: in vivo, Abutilon theophrasti
In short: as §1

[6] = system: barnyardgrass; assay: Test B flood; type: in vivo, Echinochloa crus-galli; conditions: 250 g ai/ha, visual rating on 0 to 100 scale (0 no effect, 100 complete control), 13 to 15 days
In short: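 Each compound is applied to the floodwater of pots holding 2-leaf seedlings, water standing 3 cm over the soil throughout. Plants stay in a greenhouse 13 to 15 days before visual scoring against controls from 0 (no effect) to 100 (complete control).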

[7] = system: ryegrass, Italian; assay: Test C preemergence; type: in vivo, Lolium multiflorum; conditions: for Plant response rating (scale of 0 to 100), Ryegrass, Italian: Preemergence, 250 g ai/ha; for Ryegrass, Italian plant response rating / Plant response rating, Ryegrass, Italian: preemergence; for Plant response rating, Ryegrass, Italian: 62 g ai/ha, scale 0 to 100, 0 = no effect, 100 = complete control
In short: (§2)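 Scores of 0 (no effect) to 100 (complete control) were assigned by eye after 13–15 days, comparing treated pots with controls. Soil-applied (preemergence) treatments went onto seeds in loam and sand; foliar (postemergence) treatments onto 1- to 4-leaf plants in peat medium.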

[8] = system: corn; assay: Test C preemergence; type: in vivo, Zea mays; conditions: for Plant response rating (scale of 0 to 100), Corn: Preemergence, 250 g ai/ha; for Corn plant response rating / Plant response rating, Corn: preemergence; for Plant response rating, Corn: 62 g ai/ha, scale 0 to 100, 0 = no effect, 100 = complete control
In short: as §2

[9] = system: crabgrass, large; assay: Test C preemergence; type: in vivo, Digitaria sanguinalis; conditions: for Plant response rating (scale of 0 to 100), Crabgrass, Large: Preemergence, 250 g ai/ha; for Crabgrass, Large plant response rating / Plant response rating, Crabgrass, Large: preemergence; for Plant response rating, Crabgrass, Large: 62 g ai/ha, scale 0 to 100, 0 = no effect, 100 = complete control
In short: as §2

[10] = system: foxtail, giant; assay: Test C preemergence; type: in vivo, Setaria faberii; conditions: for Plant response rating (scale of 0 to 100), Foxtail, Giant: Preemergence, 250 g ai/ha; for Foxtail, Giant plant response rating / Plant response rating, Foxtail, Giant: preemergence; for Plant response rating, Foxtail, Giant: 62 g ai/ha, scale 0 to 100, 0 = no effect, 100 = complete control
In short: as §2

[11] = system: johnsongrass; assay: Test C preemergence; type: in vivo, Sorghum halepense; conditions: for Plant response rating (scale of 0 to 100), Johnsongrass: Preemergence, 250 g ai/ha; for Johnsongrass plant response rating / Plant response rating, Johnsongrass: preemergence; for Plant response rating, Johnsongrass: 62 g ai/ha, scale 0 to 100, 0 = no effect, 100 = complete control
In short: as §2

[12] = system: ragweed; assay: Test C preemergence; type: in vivo, Ambrosia elation; conditions: for Plant response rating (scale of 0 to 100), Ragweed: Preemergence, 250 g ai/ha; for Ragweed plant response rating / Plant response rating, Ragweed: preemergence; for Plant response rating, Ragweed: 62 g ai/ha, scale 0 to 100, 0 = no effect, 100 = complete control
In short: as §2

[13] = system: barnyardgrass; assay: Test C preemergence; type: in vivo, Echinochloa crus-galli; conditions: for Plant response rating (scale of 0 to 100), Barnyardgrass: Preemergence, 250 g ai/ha; for Barnyardgrass plant response rating / Plant response rating, Barnyardgrass: preemergence; for Plant response rating, Barnyardgrass: 62 g ai/ha, scale 0 to 100, 0 = no effect, 100 = complete control
In short: as §2

[14] = system: oilseed rape; assay: Test C preemergence; type: in vivo, Brassica napus; conditions: for Plant response rating (scale of 0 to 100), Oilseed Rape: Preemergence, 250 g ai/ha; for Oilseed Rape plant response rating / Plant response rating, Oilseed Rape: preemergence; for Plant response rating, Oilseed Rape: 62 g ai/ha, scale 0 to 100, 0 = no effect, 100 = complete control
In short: as §2

[15] = 125 g ai/ha, visual injury, 0 to 100 scale, approx. 10 days
[16] = 500 g ai/ha, visual injury after approx. 10 days, 0 to 100 scale (0 no effect, 100 complete control)
[17] = Postemergence, 500 g ai/ha, visual rating after approx. 10 days, 0 to 100 scale (0 no effect, 100 complete control)
[18] = postemergence, 125 g ai/ha, about 10 days, visual rating on 0 to 100 scale (0 no effect, 100 complete control)
[19] = 31 g ai/ha, visual rating, scale 0 to 100 (0 no effect, 100 complete control), 13 to 15 days
[20] = 125 g ai/ha, scale 0 to 100, 0 is no effect, 100 is complete control
[21] = 31 g ai/ha, scale 0 to 100 (0 no effect, 100 complete control), 13 to 15 days

## CCc1cc(C(=O)NC2CC2)nn1Cc1ccnc(OC(F)F)c1 [Compound 98]
[1]; [15]
  Barnyardgrass plant response rating: 90
[1]; [16]
  Barnyardgrass plant response rating: 100
[2]; [15]
  Foxtail, Giant plant response rating: 100
[2]; [16]
  Foxtail, Giant plant response rating: 100
[3]; [15]
  Morningglory plant response rating: 100
[3]; [16]
  Morningglory plant response rating: 100
[4]; [15]
  Velvetleaf plant response rating: 100
[4]; [16]
  Velvetleaf plant response rating: 100
[5]; [17]
  Velvetleaf plant response rating: 100
[5]; [18]
  Velvetleaf plant response rating: 70
[6]
  Plant response rating, Barnyardgrass: 0
[7]
  Plant response rating (scale of 0 to 100), Ryegrass, Italian: 100
[7]; [19]
  Ryegrass, Italian plant response rating: 30
[7]; 13 to 15 days
  Plant response rating, Ryegrass, Italian: 80
[7]; [20]
  Ryegrass, Italian plant response rating: 95
[8]
  Plant response rating (scale of 0 to 100), Corn: 95
[8]; [19]
  Corn plant response rating: 35
[8]; 13 to 15 days
  Plant response rating, Corn: 45
[8]; [20]
  Corn plant response rating: 90
[9]
  Plant response rating (scale of 0 to 100), Crabgrass, Large: 100
[9]; [19]
  Crabgrass, Large plant response rating: 98
[9]; 13 to 15 days
  Plant response rating, Crabgrass, Large: 100
[9]; [20]
  Crabgrass, Large plant response rating: 100
[10]
  Plant response rating (scale of 0 to 100), Foxtail, Giant: 100
[10]; [19]
  Foxtail, Giant plant response rating: 100
[10]; 13 to 15 days
  Plant response rating, Foxtail, Giant: 100
[10]; [20]
  Foxtail, Giant plant response rating: 100
[11]
  Plant response rating (scale of 0 to 100), Johnsongrass: 100
[11]; [19]
  Johnsongrass plant response rating: 65
[11]; 13 to 15 days
  Plant response rating, Johnsongrass: 70
[11]; [20]
  Johnsongrass plant response rating: 100
[12]
  Plant response rating (scale of 0 to 100), Ragweed: 100
[12]; [19]
  Ragweed plant response rating: 95
[12]; 13 to 15 days
  Plant response rating, Ragweed: 100
[12]; [20]
  Ragweed plant response rating: 100
[13]
  Plant response rating (scale of 0 to 100), Barnyardgrass: 100
[13]; [21]
  Barnyardgrass plant response rating: 30
[13]; 13 to 15 days
  Plant response rating, Barnyardgrass: 100
[13]; [20]
  Barnyardgrass plant response rating: 100
[14]
  Plant response rating (scale of 0 to 100), Oilseed Rape: 100
[14]; [19]
  Oilseed Rape plant response rating: 100
[14]; 13 to 15 days
  Plant response rating, Oilseed Rape: 100
[14]; [20]
  Oilseed Rape plant response rating: 100

## CCOc1cc(C(=O)NCC(F)(F)F)nn1Cc1ccnc(C(F)(F)F)c1 [Compound 104]
[1]; [15]
  Barnyardgrass plant response rating: 100
[1]; [16]
  Barnyardgrass plant response rating: 100
[2]; [15]
  Foxtail, Giant plant response rating: 100
[2]; [16]
  Foxtail, Giant plant response rating: 100
[3]; [15]
  Morningglory plant response rating: 100
[3]; [16]
  Morningglory plant response rating: 100
[4]; [15]
  Velvetleaf plant response rating: 100
[4]; [16]
  Velvetleaf plant response rating: 100
[5]; [17]
  Velvetleaf plant response rating: 100
[5]; [18]
  Velvetleaf plant response rating: 90
[6]
  Plant response rating, Barnyardgrass: 75
[7]
  Plant response rating (scale of 0 to 100), Ryegrass, Italian: 95
[7]; [19]
  Ryegrass, Italian plant response rating: 80
[7]; 13 to 15 days
  Plant response rating, Ryegrass, Italian: 90
[7]; [20]
  Ryegrass, Italian plant response rating: 95
[8]
  Plant response rating (scale of 0 to 100), Corn: 98
[8]; [19]
  Corn plant response rating: 40
[8]; 13 to 15 days
  Plant response rating, Corn: 65
[8]; [20]
  Corn plant response rating: 98
[9]
  Plant response rating (scale of 0 to 100), Crabgrass, Large: 100
[9]; [19]
  Crabgrass, Large plant response rating: 100
[9]; 13 to 15 days
  Plant response rating, Crabgrass, Large: 100
[9]; [20]
  Crabgrass, Large plant response rating: 100
[10]
  Plant response rating (scale of 0 to 100), Foxtail, Giant: 100
[10]; [19]
  Foxtail, Giant plant response rating: 100
[10]; 13 to 15 days
  Plant response rating, Foxtail, Giant: 100
[10]; [20]
  Foxtail, Giant plant response rating: 100
[11]
  Plant response rating (scale of 0 to 100), Johnsongrass: 100
[11]; [19]
  Johnsongrass plant response rating: 90
[11]; 13 to 15 days
  Plant response rating, Johnsongrass: 100
[11]; [20]
  Johnsongrass plant response rating: 100
[12]
  Plant response rating (scale of 0 to 100), Ragweed: 100
[12]; [19]
  Ragweed plant response rating: 98
[12]; 13 to 15 days
  Plant response rating, Ragweed: 100
[12]; [20]
  Ragweed plant response rating: 100
[13]
  Plant response rating (scale of 0 to 100), Barnyardgrass: 100
[13]; [21]
  Barnyardgrass plant response rating: 100
[13]; 13 to 15 days
  Plant response rating, Barnyardgrass: 100
[13]; [20]
  Barnyardgrass plant response rating: 100
[14]
  Plant response rating (scale of 0 to 100), Oilseed Rape: 100
[14]; [19]
  Oilseed Rape plant response rating: 100
[14]; 13 to 15 days
  Plant response rating, Oilseed Rape: 100
[14]; [20]
  Oilseed Rape plant response rating: 100
